In ChEMBL document CHEMBL1127922, “Synthesis and pharmacological evaluation of vinyl sulfone based anticancer agents” (Bioorg Med Chem Lett, 1994):

Tests used:
A549 = experiment: In vitro cytotoxicity in human tumor lung carcinoma A-549 cell lines; type: functional
MCF7 = experiment: In vitro cytotoxicity in human tumor breast carcinoma MCF-7 cell lines; type: functional
Malme-3M = experiment: In vitro cytotoxicity in human tumor melanoma MALME-3M cell lines; type: functional
Mus musculus [1] = experiment: In vivo inhibitory activity against HT-29 colon cells at maximally tolerated dose(MTD) of 11 mg/kg in mice; type: functional
Mus musculus [2] = experiment: In vivo inhibitory activity against HT-29 colon cells at maximally tolerated dose(MTD) of 33 mg/kg in mice; type: functional
SK-MEL-5 = experiment: In vitro cytotoxicity in human tumor melanoma SK-MEL5c ell lines; type: functional
[3] = In vitro toxicity against ras transformed 3LL cell lines was determined; type: cell-based; details: ras transformed 3LL cells; read-out: LC50 (the source's name)
[4] = In vitro toxicity against ras transformed H/1.2-NRK cell lines was determined; details: rat, ras transformed H/1.2-NRK cells; read-out: LC50 (the source's name)
[5] = In vitro toxicity against ras transformed K/1-NRK cell lines was determined; details: rat, ras transformed K/1-NRK cells; read-out: LC50 (the source's name)
[6] = In vitro toxicity against ras transformed NRKE cell lines was determined; type: cell-based; details: rat, NRKE cells; read-out: LC50 (the source's name)
[7] = Total number of toxic deaths of mice to the total number of mice tested was determined at a dose of 11 mg/kg; 0/8; type: ADME, organism-based; set-up: dose 11 mg/kg; details: mouse, in vivo
[8] = Total number of toxic deaths of mice to the total number of mice tested was determined at a dose of 33 mg/kg; 0/8; type: ADME, organism-based; set-up: dose 33 mg/kg; details: mouse, in vivo
[9] = (§1) Ratio of LC50(NRKE) to LC50(H/1.2-NRK) expressed as differential induces(DI) was determined; type: ADME; details: rat, NRKE cells and H/1.2-NRK cells
[10] = (§2) Ratio of LC50(NRKE) to LC50(N/4.2-NRK ) expressed as differential induces(DI) was determined; type: ADME; details: rat, NRKE cells and N/4.2-NRK cells
[11] = In vitro toxicity against ras transformed N/4.2-NRK cell lines was determined; details: rat, ras transformed N/4.2-NRK cells; read-out: LC50 (the source's name)
HT-29 = experiment: In vitro cytotoxicity in human tumor colon adenocarcinoma HT-29 cell lines; type: functional
[12] = Total number of toxic deaths of mice to the total number of mice tested was determined at a dose of 100 mg/kg; 1/8; type: ADME, organism-based; set-up: dose 100 mg/kg; details: mouse, in vivo
[13] = as §1; type: functional
[14] = Ratio of LC50(NRKE) to LC50(K/1-NRK) expressed as differential induces(DI) was determined; type: functional
[15] = as §2; type: functional
[16] = Ratio of LC50(NRKE) to LC50(3LL) expressed as differential induces(DI) was determined; type: functional
Mus musculus [17] = experiment: In vivo inhibitory activity against HT-29 colon cells at maximally tolerated dose(MTD) of 100 mg/kg in mice; type: functional
Mus musculus [18] = experiment: In vivo inhibitory activity against HT-29 colon cells at maximally tolerated dose(MTD) of 3 mg/kg in mice; type: functional
Mus musculus [19] = experiment: In vivo inhibitory activity against HT-29 colon cells at maximally tolerated dose(MTD) of 10 mg/kg in mice; type: functional
[20] = Total number of toxic deaths of mice to the total number of mice tested was determined at a dose of 10 mg/kg; 0/8; type: ADME, organism-based; set-up: dose 10 mg/kg; details: mouse, in vivo
[21] = Total number of toxic deaths of mice to the total number of mice tested was determined at a dose of 3 mg/kg; 0/8; type: ADME, organism-based; set-up: dose 3 mg/kg; details: mouse, in vivo

Row | Structure (SMILES) | ED50 (A549) [M l-1] | ED50 (MCF7) [M l-1] | ED50 (Malme-3M) | ED50 (SK-MEL-5) [M l-1] | CC50 [3] [nM] | CC50 [4] [nM] | CC50 [5] [nM] | CC50 [6] [nM] | CC50 [11] [nM] | further results
1 | C=C(CN(CC(=C)S(C)(=O)=O)C1CC(C(C)(C)C)CCC1O)S(C)(=O)=O (stereo not given) | 1.3e-06 | 3.3e-07 | 4.2e-06 M l-1 | 4.6e-07 | 800 | 2500 | 600 | 2400 | 1400 | inhibition in vivo at 11 mg/kg (Mus musculus [1]): 0%; inhibition in vivo at 33 mg/kg (Mus musculus [2]): 0%; Toxic deaths [7]: 0; Toxic deaths [8]: 0; selectivity ratio [9]: 1; selectivity ratio [10]: 0.6
2 | C=C(CN(C)C1CC(C(C)(C)C)CCC1O)S(C)(=O)=O (stereo not given) | 1.4e-05 | 1.7e-07 | 4.8e-07 M l-1 | 5.6e-07 |  |  |  |  |  | 
3 | C=C(CNC1CC(C(C)(C)C)CCC1O)S(C)(=O)=O (stereo not given) | 6.7e-07 | 4.7e-07 | 6e-07 M l-1 | 1.9e-07 |  |  |  |  |  | 
4 | C=C(CCl)S(C)(=O)=O | 1.9e-05 | 6.5e-06 | 6.5e-06 M l-1 | 3.2e-06 |  |  |  |  |  | ED50 (HT-29): 2.2e-06 M l-1
5 | C=C(CN1C(=O)OC2CCC(C(C)(C)C)CC21)S(C)(=O)=O (stereo not given) | 2.9e-05 | 2.7e-06 | 1.1e-05 M l-1 | 1.3e-06 | 3100 | 4700 | 2600 | 4400 | 5000 | inhibition in vivo at 33 mg/kg (Mus musculus [2]): 0%; Toxic deaths [12]: 1; Toxic deaths [8]: 0; Ratio [13]: 0.9; Ratio [14]: 1.7; Ratio [15]: 0.9; Ratio [16]: 1.4; inhibition in vivo at 100 mg/kg (Mus musculus [17]): 0%
6 | C=C(CN1COC2CCC(C(C)(C)C)CC21)S(C)(=O)=O (stereo not given) | 1.2e-06 | 2.4e-07 | 1e-06 M l-1 | 9.6e-07 | 500 | 2100 | 500 | 1400 | 1800 | inhibition in vivo at 3 mg/kg (Mus musculus [18]): 0%; inhibition in vivo at 10 mg/kg (Mus musculus [19]): 0%; Toxic deaths [20]: 0; Toxic deaths [21]: 0; Ratio [13]: 0.6; Ratio [15]: 0.8
7 | CC(C)(C)C1CCC(O)C(N)C1 (stereo not given) | 0.00016 | 0.00026 | > 100000 nM | 0.00045 |  |  |  |  |  | ED50 (HT-29): > 100000 nM
